Measured values as given in US20100203634A1, “Inhibition of stem cell differentiation, enhancement of proliferation and selective induction of apoptosis by Wnt factors” (DeltaCell B.V., priority 2003, published 2010).
Entries after “also recorded” stand apart in the source; their conditions may differ.

Experiments:
Type in all cases: cell-based, mouse
beta-catenin = experiment: Nuclear translocation of beta-catenin, immunohistology of fetal lung explants
Experimental: FIG. 8: Nuclear translocation of beta-catenin by Wnt3A in fetal lung explants. The translocation of beta-catenin was determined using immunohistological analysis of histological sections from fetal lung explants (E12.5), cultured for two days in the presence of Wnt3a at a concentration of 0 ng/ml (Panel A); 10 ng/ml (Panel B); 50 ng/ml (Panel C); 250 ng/ml (Panel D); 500 ng/ml (Panel E) and 1000 ng/ml (Panel F).
(§1) The primary antibodies used for the immunohistochemical detection was for beta-catenin; anti beta-catenin IgG, mAb, clone 14 from BD-Transduction Laboratories, for tubulin-beta mAb clone TBN05 (Tub2.1) from Neomarkers, for BrdU; anti-Bromodeoxyuridine (BrdU), mAb clone ZBU30 from Zymed Laboratories Inc.
In order to determine whether Wnt3A actually elevates the Wnt-signaling pathway in these explants, histological sections were stained for beta-catenin, the intracellular factor, which, together with members of the high mobility group (HMG) of transcription factors such as TCF1 and LEF, transducer the Wnt signal to the nucleus.

[1] = test system: mesenchyme and epithelium of fetal lung explants; experiment: Apoptosis in lung explants by H/E histology (picnotic nuclei)
Experimental: (§2) The (fetal) murine lung explant culture was generated according to our standard protocol. Briefly, complete lungs or individually dissected lung lobes were isolated from fetal mice and cultured for one to five days in a hanging drop culture system. The Wnt3a polypeptide was administered to the culture medium in different concentrations, ranging from 0 to 4000 ng/ml. The effect of this treatment was monitored by stereomicroscopy. The lung explant cultures were subsequently fixed for 30 minutes in 10% paraformaldehyde (PFA), 30 minutes in 2% PFA and 30 minutes in 4% PFA. After fixation, the lung explants were dehydrated through an increasing series of 2-isopropanol and subsequently embedded in paraffin. For the histological analysis, 4 μm thick sections were cut and stained with Hematoxilin and Eosin using standard techniques.
In order to determine the concentration range in which the Wnt3a polypeptide is effective, total lung explants were cultured in the presence of Wnt3a in a range of 0 ng/ml, 500 ng/ml, 750 ng/ml, 1000 ng/ml, 2000 ng/ml and 4000 ng/ml (FIG. 2, Panels A-R).
After two days of culture, these lung explants were fixed and embedded in paraffin for immunohistological analysis.
To more exactly determine the concentration of Wnt3a that is effective upon lung development, differentiation and apoptosis, fetal lung explants were cultured for a longer period (four days) in the presence of lower concentrations of Wnt3a, i.e., 0 ng/ml, 4 ng/ml, 20 ng/ml, 100 ng/ml and 500 ng/ml (FIG. 4, Panels A-O).

[2] = test system: fetal lung explants (E12.5); experiment: Quantification of cell proliferation using phospho histon H3 immunohistochemistry
Experimental: The number of cells undergoing mitosis was measured using immunohistochemical detection of phosphorylated histon H3, which is present only on condensed chromosomes during mitosis. Per condition, at least four different lung explants were treated and in total, 20 sections per condition were counted for phospho histon H3-positive cells by two different investigators. The primary antibody against phopho histon H3 (Ser10, clone 6G3) was purchased from Cell Signaling Technology and used according to the recommendations of the supplier.
To further determine the short-term effect of different Wnt3A concentrations upon the induction of proliferation, lung explants (E12.5) were cultured for one day with 0, 30, 125 and 500 ng/ml Wnt3a.
The lung explants were processed for immunohistochemical analysis and stained for Histon H3 phosphorylation, which can be used as a quantifiable cell proliferation marker as it is present in a fixed amount on condensed chromosomes only during active cell division (material and methods). […] However, most of the increase in proliferation could be accounted to the mesenchyme, where an increase in 40 to 60% of cells undergoing […] was observed.

fetal lung explants = experiment: Fetal murine lung explant culture (hanging drop), stereomicroscopy and H/E histology of differentiation
From the text: To provide proof of evidence, an in vitro explant lung culture (obtained from a mouse) is used. Generation of new alveolar tissue in patients is stimulated by activation or re-activation of alveolar bud formation. Growth and branching of alveolar buds, followed by transformation into alveolar ducts, sacs and pouches, results in the establishment of pulmonary acini.
As a proof of evidence, it is, therefore, shown that treatment with selected molecules involved in a Wnt pathway inhibits the differentiation process of alveolar differentiation. Inhibition of this differentiation process is achieved by applying a purified Wnt3a polypeptide to an in vitro lung explant culture of 13-day-old (E13) mouse embryos.
as §2
As a source for Wnt3a, recombinant mouse Wnt3a from R&D Systems (catalog nr. 1324-WN, R&D Systems, Inc. Minneapolis USA) was used. As culture medium, DMEM/HAM's F12 (1:1) from Biochrom AG, catalog nr. FG 4815, was used.

[3] = test system: mesenchyme and epithelium of fetal lung explants; experiment: BrdU incorporation immunostaining on lung explants; conditions: four days
Experimental: as §1
To further analyze the effect of Wnt3a upon apoptosis and proliferation, lung explants were cultured for four days in the presence of 0, 4, 20, 100, 250, 500, 750 and 1000 ng/ml. In order to identify whether after Wnt3A treatment cells are viable and active, proliferating BrdU was added to the culture medium, which is incorporated in newly synthesized DNA of active proliferating cells, two hours before the fixation of the lung explants. […] To better investigate this effect, histological sections were analyzed with the TUNEL assay, which detects fragmented DNA present in apoptotic cells (material and methods).
In order to identify whether the epithelial cells were still actively proliferating after four days of Wnt3a treatment, the histological sections were immunostained for incorporated BrdU (FIG. 6).

Substance: Wnt3a
- nuclear beta-catenin (beta-catenin; 10-1000 ng/ml, within the first two days, mesenchymal cells around lung buds): dosage-dependent increase in nuclear beta-catenin
- nuclear beta-catenin (beta-catenin; 250 and 500 ng/ml, two days): maximal; also recorded: strong induction of nuclear beta-catenin
- nuclear beta-catenin (beta-catenin; four- and eight-day cultures): had disappeared
- apoptosis in the epithelium ([1]; 750 ng/ml, two days): no sign of apoptosis whatsoever
- apoptosis in the mesenchyme ([1]; 750 ng/ml, two days): clearly detectable but not yet abundant
- apoptosis in the epithelium ([1]; 1000 ng/ml, five days): contained no apoptotic cells
- apoptosis in the mesenchyme ([1]; 1000 ng/ml, five days): most of the mesenchymal cells surrounding the epithelium displayed picnotic nuclei; also recorded: massive induction of apoptosis in the mesenchyme
- apoptosis in the epithelium ([1]; 1000 ng/ml, two days): not detectable
- apoptosis in the epithelium ([1]; between 100 and 500 ng/ml, four days): no sign of apoptosis could be detected
- concentration at which apoptosis in the epithelium is induced ([1]; conclusion): higher than 1000 ng/ml
- concentration at which apoptosis in the mesenchyme is induced ([1]; conclusion): greater than 100 ng/ml
- effect on proliferation ([2]; 30 ng/ml, after one day): markedly increases proliferation
- increase in overall proliferation (phospho histon H3-positive cells) ([2]; 30, 125 and 500 ng/ml, one day): > 20%
- concentration at which the maximum stimulatory effect on proliferation was reached ([2]; one day): ≤ 30 ng/mL
- differentiation of the epithelium (fetal lung explants; 500 ng/ml, four days): delayed; also recorded: undifferentiated character of the epithelium
- differentiation of the primordial lung epithelium (histology) (fetal lung explants; 1000 ng/ml, five-day-old cultures): arrested at a stage comparable to that of the start of the culture (E13); also recorded: strong inhibitory effect on the development and differentiation of the fetal lung; also recorded: arrest of alveolar differentiation
- effect on cell viability (fetal lung explants; 2000 ng/ml): affects the viability of all cells
- effect on lung development (stereomicroscopy) (fetal lung explants; 2000 ng/ml and 4000 ng/ml, after one day): deleterious effect on lung development
- complete block of differentiation of fetal lung development (fetal lung explants; 4, 20, 100 and 500 ng/ml, four days): None of these concentrations was effective in completely blocking the differentiation
- lung differentiation (stereomicroscopy) (fetal lung explants; E13 lung explants, 1000 ng/ml, after 16 hours): total block of lung differentiation
- differentiation and alveolar development (stereomicroscopy) (fetal lung explants; E13 lung explants, 1000 ng/ml, five days culture): no significant differentiation and alveolar development could be observed
- effects at the level of apoptosis and differentiation compared to control (fetal lung explants; between 4 and 20 ng/ml, four days): no clear effects were visible
- concentration at which differentiation was strongly retarded with many picnotic cells (fetal lung explants; histological examination at day 4): above 100 ng/ml
- concentration that does not show clear morphological changes (fetal lung explants; lung explants): below 1 ng/ml
- BrdU-positive (active proliferating) cells ([3]; 500 ng/ml and lower): both the mesenchyme and epithelium contained many BrdU-positive
- BrdU-positive (active proliferating) cells ([3]; 750 ng/ml): intermediate effect
- BrdU-positive (active proliferating) cells ([3]; 1000 ng/ml): almost all BrdU-positive cells were present in the epithelium
